US7407953B2, “Wound healing” (Photopharmica Limited, priority 2007, dated 2008)
Where “and” joins values, the source holds several entries; their conditions need not be identical. Equal values may be shown once.

How the values were obtained:
[1] = test system: full-thickness excisional wounds in flank skin of Wistar rats; assay: Closure of full thickness excisional wounds in Wistar rat, PDT; assay type: in vivo
Experimental: 3,7-bis(N,N-dibutylamino)phenothiazin-5-ium bromide was solubilised in ethanol to give a concentration of 10 mg/ml. This was diluted in Unguentum M: 80% water, to give creams with final concentrations of 100 μM or 500 μM of 3,7-bis(N,N-dibutylamino)phenothiazin-5-ium bromide.
The above creams were used on the closure of full thickness excisional wounds in Wistar rats with exposure to light. The effect of topical application of 50 mg of 3,7-bis(N,N-dibutylamino)phenothiazin-5-ium bromide (at concentrations of 100 μM and 500 μM) followed by photo-activation with 688 nm laser light was investigated and compared to that of application of the drug delivery vehicle (Unguentum M) followed by 688 nm photo-activation. The light dose used was 50 J/cm^2. Wound repair was measured in terms of the closure of standardised full-thickness excisional wounds created in the flank skin of adult Wistar rats.

chronic leg ulcers = assay: Phase IIa randomised, placebo controlled trial, PDT in chronic leg ulcers; assay type: in vivo, patients; conditions: 500 μM cream, 50 J/cm^2
Experimental: 16 patients with chronic leg ulcers were recruited for the study. All patients had ulcers that had been present for at least 3 months prior to treatment. After randomisation, 8 patients were treated with 3,7-bis(N,N-dibutylamino)phenothiazin-5-ium bromide PDT and 8 patients were treated with placebo. Ulcer area was measured before treatment and at 1 week, 1 month, 2 months and 3 months post treatment using a Visitrak system. Photographs were taken of the ulcers before treatment and at 24 h, 1 week, 1, 2 and 3 months post treatment.
Placebo cream was Unguentum Merck: water (1:2). 3,7-bis(N,N-dibutylamino)phenothiazin-5-ium bromide cream was 500 μM 3,7-bis(N,N-dibutylamino)phenothiazin-5-ium bromide in Unguentum Merck:water (1:2). For the treatment a 1 mm depth of cream was spread over the surface of the ulcer. The ulcer was then left, occluded under film, shielded from light for 15 minutes. At the end of the 15 minute incubation, excess cream was removed and the ulcer was illuminated using a CureLight 01 (obtainable from Photocure) at a light dose of 50 J/cm^2.

[2] = test system: full thickness wound in flank skin of Wistar rat; assay: Wound healing in the Wistar rat, no light; assay type: in vivo; conditions: for % Wound area remaining, no light, 2 days post treatment / % Wound area remaining, no light, 4 days post treatment / % Wound area remaining, no light, 6 days post treatment: 100 mg topical, not illuminated
Experimental: On day 0, animals were anaesthetised and a single standardised full thickness wound (7.5 mm×7.5 mm) was created in the flank skin of each experimental animal. Wounds were dressed with a 1.5×1.5 cm pad of encapsulated gauze moistened with a fixed volume of sterile saline.
Wounds were allowed to heal without intervention for a period of 4 days, other than the replacement of saline moistened gauze and film dressings, as required.
On day 4 standard secondary dressings were removed. 100 mg of 100 μM or 500 μM 3,7-bis(N,N-dibutylamino)phenothiazin-5-ium bromide cream was applied to the wound. The wounds were not illuminated. The area of the wounds were measured prior to treatment (day 4) and on day 6, 8 and 10.

[3] = test system: full thickness wound in flank skin of diabetic (db/db) mice; assay: Wound healing in spontaneous diabetic (db/db) mice, PDT; assay type: in vivo, mice (c57BLKs/Bom db/db)
Description: When wounds are created on (db/db) diabetic mice the wounds heal more slowly compared to the non diabetic mice. This delayed healing may be caused by a lack of vasculature to feed the wound. The delayed healing model is representative of a chronic wound, and wound healing effects of drugs can be more closely monitored and more easily measured.
18 animals were included in this study. 6 control non diabetic mice (db/+), 6 control diabetic (db/db) mice and 6 (db/db) PDT treated diabetic mice.
The 3,7-bis(N,N-dibutylamino)phenothiazin-5-ium bromide was formulated in ethanol and Unguentum M as described in Example 2 below at a concentration of 0.266 mg/mL.
On day 0, the animals were anaesthetised and a single standardised full thickness wound (7.5 mm×7.5 mm) was created in the flank skin of each experimental animal. Wounds were then dressed with a 1.5×1.5 cm pad of encapsulated gauze moistened with a fixed volume of sterile saline solution. […]
Image Pro image analysis software (version 4.1.0.0, obtained from Media Cybernetics, USA) was used to calculate wound closure from wound images in each of the experimental groups over time. For each wound at each time point—open wound area was measured and expressed in terms of % wound area relative to day 4 (treatment day).

[4] = test system: chronic non healing leg ulcers or diabetic foot ulcers; assay: Clinical study, PDT on wound healing of chronic ulcers; assay type: in vivo, patients; conditions: 500 μM cream topical
Description: After ethical review board approval and written informed participant consents were obtained, patients were recruited, provided they satisfied the ethically approved inclusion criteria. MHRA approval had been obtained.
Patients were recruited who had chronic non healing leg ulcers or diabetic foot ulcers. These patients had shown little or no wound healing for a number of weeks prior to treatment.
For the treatment 3,7-bis(N,N-dibutylamino)phenothiazin-5-ium bromide, formulated in ethanol and Unguentum M as described in Example 2 above at 500 μM, was applied topically to the ulcer surface and surrounding ulcer margin (5 mm) giving a cream depth of up to 5 mm. The ulcer was then left, not occluded, but in minimal lighting, for 15 minutes. After this pre-incubation time, the cream was rubbed into the ulcer so underlying skin/tissue could be seen through the cream. If this was not possible excess cream was removed. The ulcer was then illuminated using a broad band CureLight lamp (obtainable from PhotoCure) at a fluence rate of 20-50 mW/cm^2 giving a total light dose of 50 J/cm^2.
The ulcer area was measured pre treatment and after 1 week and one month.

intimal hyperplasia = conditions: local photodynamic action; Heckenkamp et al 2000; cited from earlier work
wounds = conditions: literature conclusions (Parekh 1999, Lambrects 2005, Hamblin 2003, Belmont 1999); cited from earlier work
[5] = test system: rat skin flap reconstruction; conditions: Kubler et al 1996; cited from earlier work
[6] = individual patients 1-5, 50 J/cm^2 broad band light

CCCCN(CCCC)c1ccc2nc3ccc(N(CCCC)CCCC)cc3[s+]c2c1.[Br-] [3,7-bis(N,N-dibutylamino)phenothiazin-5-ium bromide]
wound closure, light treatment vs compound alone ([1]; 100 μM cream, 50 mg topical, 688 nm laser light 50 J/cm^2): closed more rapidly | wound closure, higher dose vs lower dose ([1]; 500 μM cream vs 100 μM cream): closed more rapidly | adverse tissue responses, gross examination of wound and wound margin tissue ([1]; any treatment regime of the study): no adverse tissue responses were noted | healing as measured by the size of the wound, compared to placebo (chronic leg ulcers): Better healing | patients showing complete wound healing at 2 months (chronic leg ulcers; 2 out of 8 patients, placebo: none): 25% | patients showing complete wound healing at 3 months (chronic leg ulcers; 4 out of 8 patients, placebo: 1 out of 8 (12.5%)): 50% | % Wound area remaining, no light, 2 days post treatment ([2]; 100 μM cream): 62% | % Wound area remaining, no light, 4 days post treatment ([2]; 100 μM cream): 33% | % Wound area remaining, no light, 6 days post treatment ([2]; 100 μM cream): 25% | % Wound area remaining, no light, 2 days post treatment ([2]; 500 μM cream): 62% | % Wound area remaining, no light, 4 days post treatment ([2]; 500 μM cream): 30% | % Wound area remaining, no light, 6 days post treatment ([2]; 500 μM cream): 19% | wound healing, 500 μM vs 100 μM ([2]; no light): heal faster at a 500 μM concentration than at 100 μM | % wound area (open wound area relative to day 4, treatment day) ([3]; diabetic db/db mice, 500 μM in Unguentum M topical + 25 J/cm^2 688 nm light, 3 days post treatment, 6 animals): 46% | rate of wound healing ([3]; in combination with light, treated diabetic mice vs control diabetic mice): substantial increase in the rate of wound healing | area of the treated ulcers following the photodynamic treatment ([4]; 50 J/cm^2): reduction in the area of the treated ulcers | Percentage reduction in ulcer area at 1 month compared to pre treatment [4, 6]: 13% and 8% and 10% and 50% and 34% | Percentage reduction in ulcer area at 1 week compared to pre treatment [4, 6]: 8% and 14% and 0% and 23%

CN(C)c1ccc2nc3ccc(=[N+](C)C)cc-3sc2c1 [methylene blue]
effect on intimal hyperplasia (intimal hyperplasia): retarding effect on intimal hyperplasia

Photofrin
effect of PDT on wound healing (wounds): delay wound healing | effect on wound healing [5]: delayed wound healing

Poly-lysine-chlorin e6
effect of PDT on wound healing (wounds): did not accelerate wound healing
